Source: PMC12040169 (PLOS Biology, 2025)
“And” between values parts separate entries of the source, which are not always exact repeats. Equal values may be shown once.

Legend:
HeLa = conditions: bulk resorufin, single well, 28.5 h, 10 µM, Bulk resorufin fluorescence
in vitro = conditions: human, hela cells, % viability

Row | Compound | % viability (HeLa) | viability at 28.5 h, 10 µM (in vitro)
1 | N#Cc1cccc(-c2ccc3c(c2)COC(C2CCN(C(=O)OCc4ccccc4)CC2)O3)c1 (stereo not shown) [CBK144640] | 93% | 101%
2 | COc1ccc(-c2cc(C3CC3)nc(SCC(=O)O)c2C#N)cc1 [CBK262690] | 90.1% and 95% | 91.3%
3 | C[C@@H]1CN2CCCC2CN1CC1CC=CCC1 (stereo partly shown) [CBK285441] | 99.9% | 99.1%
4 | CCCC(=O)N1CCC[C@@H](Cn2nc(-c3cccs3)ccc2=O)C1 [CBK282245] | 98% | 88.5%
5 | CCn1cc(C(=O)NN)c(=O)c2cc(F)c(N3CCOCC3)cc21 [CBK263050] | 107% | 99.9%
6 | CCn1c(C)nc2cc(C(=O)N3N=CCC3(O)C(F)(F)F)ccc21 (stereo not shown) [CBK019301] | 108% | 105%
7 | O=C(O)CCCCCN1C(=O)CC(c2ccc(Cl)cc2)CC1=O [CBK287245] | 102% | 104%
8 | O=c1[nH]nc2ccc(S(=O)(=O)N3CCCC3)cn12 [CBK288033] | 91.1% | 80.5%
9 | CC(C)Nc1nc(-c2cccnc2)nc2ccccc12 [CBK073006] | 94.6% and 102% | 91.1%
10 | C[C@H]1CN2C[C@H](O)CC2CN1Cc1ccc(Cl)c(Cl)c1 (stereo partly shown) [CBK285404] | 94.3% | 111%
11 | C[C@@H]1CN2CCCC2CN1Cc1ccc(Br)o1 (stereo partly shown) [CBK285410] | 101% | 99.7%
12 | CC(C)NC(=O)n1nccc1-c1cc(-c2ccccc2)no1 [CBK086581] | 82.6% | 102%
13 | Cc1nnc2c(N3CCNCC3)nc3ccccc3n12 [CBK270224] | 75.4% | 89%
14 | CC(C)Nc1cc(Sc2ccc(Cl)c(Cl)c2)ncn1 [CBK089500] | 83.3% | 90.8%
15 | CS(=O)(=O)N1CC=C[C@H]1C(=O)NCc1ccc(F)cc1 [CBK284270] | 87.2% | 97.6%
16 | O=C(O)CCCC(=O)N1CCN(Cc2ccc3c(c2)OCO3)CC1 [CBK074752] | 80.8% | 99.3%
17 | Cc1nn(CC(C)C(=O)O)c(C)c1Br (stereo not shown) [CBK269756] | 86.7% | 92.4%
18 | Cc1cc(C(NC(C)(C)C)C(=O)O)cc(C)c1O (stereo not shown) [CBK027143] | 90.9% | 86.6%
19 | O=C(O)CC1C(=O)NCCN1Cc1cccc(Oc2ccccc2)c1 (stereo not shown) [CBK270023] | 103% | 91.4%
20 | CS(=O)(=O)Nc1cc2ccccc2c(-c2ccc(S(C)(=O)=O)cc2)n1 [CBK085756] | 107% | 95.6%
21 | COC(=O)[C@@H]1Cc2c([nH]c3ccccc23)[C@H]2C[C@H](NCCO)C[C@@H](c3ccccc3)N21 [CBK289167] | 97.8% | 94.8%
22 | C[C@H](Cn1nc2c(cc1=O)CCCCC2)NC(=O)c1cccc(F)c1 [CBK284558] | 90% | 85.8%
23 | Cn1cc(C(=O)N2C3CCC(C3)[C@@H]2COc2ccc(F)cc2)cn1 (stereo partly shown) [CBK284605] | 112% | 93.7%
24 | CCCn1ncc(CN2C[C@@H]3CCCN3C[C@@H]2CCSC)c1C [CBK285426] | 107% | 104%
25 | CCn1cc(CN2C[C@@H]3CCCN3C[C@@H]2CCSC)cn1 [CBK283181] | 106% | 86.9%
26 | Nc1ccc2cc(-c3ccccc3)cnc2n1 [CBK061881] | 94.9% | 81.7%
27 | O=C(NCCCN1CCCCC1)/C(=N\O)c1ccccc1 [CBK288524] | 85.9% | 97.7%

Row | Compound | % viability (HeLa) | viability at 28.5 h, 10 µM (in vitro)
28 | FC(F)(F)c1cccc(-c2cnn(-c3ccncc3)n2)c1 [CBK112668] | 93.6% | 102%
29 | CCCOc1cccc(C(=O)Nc2cccc(-c3nc4ncccc4o3)c2C)c1 [CBK072326] | 106% | 97.9%
30 | Cc1ccc(S(=O)(=O)Nc2ccsc2C(=O)N2CCOCC2)cc1 [CBK004570] | 107% | 99.9%
31 | O=C(NC1CCCCC1)[C@H]1C=CCN1C(=O)c1ccccc1F [CBK283334] | 98% | 85.6%
32 | CC[C@@H](Cn1ncc2ccccc2c1=O)NC(=O)C1CC1 [CBK282385] | 91.3% | 88.3%
33 | O=C(c1cnc2[nH][nH]c(=O)c2c1)c1ccccc1O [CBK288082] | 110% | 90.5%
34 | Clc1ccc(CN2CCC(Oc3cncc(OCC4COc5ccccc5O4)n3)C2)cc1Cl (stereo not shown) [CBK084361] | 90.5% | 107%
35 | CCOc1ccc(-c2ccnc(NC[C@@H]3CCCO3)n2)cc1C(=O)O [CBK306568] | 89.2% | 86.5%
36 | CC(C)[C@@H](Cn1nc(C2CC2)ccc1=O)NC(=O)C1CC1 [CBK284309] | 85.9% | 86.1%
37 | COc1ccc(NC(=O)Nc2ccncc2)c(OC)c1 [CBK266973] | 93.8% | 95.5%
38 | CCCC(=O)NCc1ccc(OC2CCNCC2)cc1 [CBK024489T] | 112% | 95.6%
39 | c1cncc(COc2cncc(OC3CCN(CCc4c[nH]c5ccccc45)C3)n2)c1 (stereo not shown) [CBK084471] | 113% | 111%
40 | COC(=O)c1ccc(-c2nc3nnc(C)n3[nH]2)cc1 [CBK027508] | 87.7% | 103%
41 | Cc1cc(-c2cncc(NCCc3c[nH]c4ccccc34)n2)cc(C)c1O [CBK107896] | 83% | 101%
42 | O=C(O)c1ccc(S(=O)(=O)Nc2ccc(O)c(-c3c(O)ccc4ccccc34)c2)cc1 [CBK267667] | 94.7% | 108%
43 | C[C@H]1CN2CCCC2CN1Cc1c(F)cccc1F (stereo partly shown) [CBK285451] | 102% | 89.8%
44 | NC(=O)CSc1nnc(-c2ccc(Cl)cc2)o1 [CBK068597] | 89.3% | 105%
45 | CN1CCN(S(=O)(=O)c2cccc3cccnc23)CC1 [CBK051241] | 93.2% | 106%
46 | COc1cccc(CN2CC3CCCN3C[C@H]2C)c1 (stereo partly shown) [CBK285442] | 105% | 113%
47 | CC(C)(C)OC(=O)N1CCC[C@H]1C(=O)c1nccs1 [CBK284282] | 95.5% | 108%
48 | N#CCCN(C(=O)NC(c1ccccc1)c1ccccc1)C1CCCCC1 [CBK156354] | 104% | 98.7%
49 | CC(C(=O)Nc1cncc(OC2CCNCC2)n1)c1ccccc1 (stereo not shown) [CBK026733T] | 110% | 99.2%
50 | C[C@@H](Cn1nnc2ccccc21)NC(=O)C1CC1 [CBK284312] | 81.5% | 88.5%
51 | C[C@H]1CN2C[C@H](O)CC2CN1Cc1cccc(Oc2ccccc2)c1 (stereo partly shown) [CBK284566] | 96.2% | 93.6%
52 | Nc1nc2cccnc2cc1-c1cccc(OCc2ccccc2)c1 [CBK081206] | 105% | 99.2%
53 | C[C@H](Cn1c(=O)oc2ccccc21)NC(=O)CC1c2ccccc2Oc2ccccc21 [CBK286201] | 96.8% | 90.1%
